Molecular target: T1, human TREK-1 (Homo sapiens, UniProt O95069)
T1 construct: expressed in transfected cells
T1 sequence (O95069 1-426): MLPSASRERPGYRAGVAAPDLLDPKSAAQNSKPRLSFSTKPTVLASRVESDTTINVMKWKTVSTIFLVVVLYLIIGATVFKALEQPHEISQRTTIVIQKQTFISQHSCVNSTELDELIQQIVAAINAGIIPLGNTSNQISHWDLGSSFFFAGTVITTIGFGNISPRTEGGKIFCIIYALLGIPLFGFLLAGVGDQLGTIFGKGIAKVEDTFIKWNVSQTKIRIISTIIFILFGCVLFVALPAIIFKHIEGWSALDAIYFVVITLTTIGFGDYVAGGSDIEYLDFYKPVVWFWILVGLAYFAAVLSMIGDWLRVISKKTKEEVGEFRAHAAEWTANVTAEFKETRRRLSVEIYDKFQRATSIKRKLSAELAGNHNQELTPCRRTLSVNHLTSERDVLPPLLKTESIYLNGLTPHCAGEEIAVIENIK
Assay: TREK-1 Thallium (Tl+) flux assay, Method 1
Format: cell-based
Conditions: TREK-1 Thallium (Tl+) flux assay; values without footnote *12 are Method 1
Outline: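 Readout: Thallos fluorescence ratio, taken 25 s post-thallium relative to the pre-thallium baseline average, then converted to % inhibition. Cells were CHO-K1 stably expressing human TREK-1, dye-loaded and exposed to test compound (vehicle 0.3% DMSO) for 10 min prior to thallium stimulation.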

| SMILES | IC50 [nM] |
| --- | --- |
| CC(C)C(=O)N1CCOC(Cn2ncc(Cl)c2C(=O)Nc2ncc(C#Cc3ccccc3)cc2F)C1 (centres unmarked) [Compound 145, 4-chloro-N-(3-fluoro-5-(phenylethynyl)pyridin-2-yl)-1-((4-isobutyrylmorpholin-2-yl)methyl)-1H-pyrazole-5-carboxamide] | 230 |
| CC(C)C(=O)N1CC[C@@H](Cn2ncc(Cl)c2C(=O)Nc2ncc(C#Cc3ccccc3)cc2F)[C@@H](F)C1 [Compound 146, 4-chloro-1-(((3R,4S)-3-fluoro-1-isobutyrylpiperidin-4-yl)methyl)-N-(3-fluoro-5-(phenylethynyl)pyridin-2-yl)-1H-pyrazole-5-carboxamide] | 230 |
| Cc1cc(C#Cc2ccccc2)cnc1NC(=O)c1c(Cl)cnn1C[C@H]1CCOC1 [Compound 147, (R)-4-chloro-N-(3-methyl-5-(phenylethynyl)pyridin-2-yl)-1-((tetrahydrofuran-3-yl)methyl)-1H-pyrazole-5-carboxamide] | 240 |
| O=C(Nc1ncc(C#Cc2ccccc2)cc1F)c1c(Cl)cnn1C[C@@H]1CCOC1 [Compound 148, (S)-4-chloro-N-(3-fluoro-5-(phenylethynyl)pyridin-2-yl)-1-((tetrahydrofuran-3-yl)methyl)-1H-pyrazole-5-carboxamide] | 240 |
| Cc1cc(C#Cc2ccccc2)cnc1NC(=O)c1c(Cl)cnn1C1CCN(C(=O)C2CC2)CC1 [Compound 149, 4-chloro-1-(1-(cyclopropanecarbonyl)piperidin-4-yl)-N-(3-methyl-5-(phenylethynyl)pyridin-2-yl)-1H-pyrazole-5-carboxamide] | 240 |
| CC(=O)N1CCC(Cn2ncc(Cl)c2C(=O)Nc2ncc(C#Cc3cccc(F)c3)cc2C)CC1 [Compound 150, 1-((1-acetylpiperidin-4-yl)methyl)-4-chloro-N-(5-((3-fluorophenyl)ethynyl)-3-methylpyridin-2-yl)-1H-pyrazole-5-carboxamide] | 240 |
| Cc1cc(C#Cc2ccc(F)cc2)cnc1NC(=O)c1c(Cl)cnn1C1CCN(C(=O)C(C)C)CC1 [Compound 151, 4-chloro-N-(5-((4-fluorophenyl)ethynyl)-3-methylpyridin-2-yl)-1-(1-isobutyrylpiperidin-4-yl)-1H-pyrazole-5-carboxamide] | 240 |
| Cc1cc(C#Cc2cccc(F)c2)cnc1NC(=O)c1c(Cl)cnn1C1CCN(C(=O)C(C)C)CC1 [Compound 152, 4-chloro-N-(5-((3-fluorophenyl)ethynyl)-3-methylpyridin-2-yl)-1-(1-isobutyrylpiperidin-4-yl)-1H-pyrazole-5-carboxamide] | 240 |
| CC(=O)N1CCC(CCn2ncc(Cl)c2C(=O)Nc2ncc(C#Cc3ccccc3)cc2C)CC1 [Compound 153, 1-(2-(1-acetylpiperidin-4-yl)ethyl)-4-chloro-N-(3-methyl-5-(phenylethynyl)pyridin-2-yl)-1H-pyrazole-5-carboxamide] | 240 |
| CC(=O)N1CC[C@H](n2ncc(Cl)c2C(=O)Nc2ncc(C#Cc3ccccc3)cc2F)[C@@H](F)C1 [Compound 154, 1-((3S,4S)-1-acetyl-3-fluoropiperidin-4-yl)-4-chloro-N-(3-fluoro-5-(phenylethynyl)pyridin-2-yl)-1H-pyrazole-5-carboxamide] | 240 |
| Cc1cc(C#Cc2ccccc2)cnc1NC(=O)c1c(Cl)cnn1CC1(F)CCN(C(=O)OC(C)(C)C)CC1 [Compound 155, tert-butyl 4-((4-chloro-5-((3-methyl-5-(phenylethynyl)pyridin-2-yl)carbamoyl)-1H-pyrazol-1-yl)methyl)-4-fluoropiperidine-1-carboxylate] | 240 |
| CC(=O)N[C@H]1C[C@H](n2ncc(Cl)c2C(=O)Nc2ncc(C#Cc3ccccc3)cc2C)C1 [Compound 156, 1-(trans-3-acetamidocyclobutyl)-4-chloro-N-(3-methyl-5-(phenylethynyl)pyridin-2-yl)-1H-pyrazole-5-carboxamide] | 240 |
| Cc1cc(C#Cc2ccccc2)cc(F)c1NC(=O)c1c(Cl)cnn1[C@H]1CCOC1 [Compound 157, (S)-4-chloro-N-(2-fluoro-6-methyl-4-(phenylethynyl)phenyl)-1-(tetrahydrofuran-3-yl)-1H-pyrazole-5-carboxamide] | 250 |
| CCNC(=O)N1CCC(n2ncc(Cl)c2C(=O)Nc2ncc(C#Cc3ccccc3)cc2F)CC1 [Compound 158, 4-(4-chloro-5-((3-fluoro-5-(phenylethynyl)pyridin-2-yl)carbamoyl)-1H-pyrazol-1-yl)-N-ethylpiperidine-1-carboxamide] | 250 |

The remaining lines, values ahead:

| IC50 [nM] | SMILES |
| --- | --- |
| 220 | CC(=O)N1CC[C@H](n2ncc(Cl)c2C(=O)Nc2ncc(C#Cc3ccccc3)cc2F)C1 [Compound 129, (S)-1-(1-acetylpyrrolidin-3-yl)-4-chloro-N-(3-fluoro-5-(phenylethynyl)pyridin-2-yl)-1H-pyrazole-5-carboxamide] |
| 220 | O=C(Nc1ncc(C#Cc2ccccc2)cc1F)c1c(Cl)cnn1C1CCN(C(=O)C2CC2)CC1 [Compound 130, 4-chloro-1-(1-(cyclopropanecarbonyl)piperidin-4-yl)-N-(3-fluoro-5-(phenylethynyl)pyridin-2-yl)-1H-pyrazole-5-carboxamide] |
| 220 | CC(=O)N1CCCC(n2ncc(Cl)c2C(=O)Nc2ncc(C#Cc3ccccc3)cc2C)CC1 (centres unmarked) [Compound 131, 1-(1-acetylazepan-4-yl)-4-chloro-N-(3-methyl-5-(phenylethynyl)pyridin-2-yl)-1H-pyrazole-5-carboxamide] |
| 220 | CCNC(=O)N1C[C@H]2C[C@H](n3ncc(Cl)c3C(=O)Nc3ncc(C#Cc4cccc(F)c4)cc3C)C[C@H]2C1 [Compound 132, (3aR,5s,6aS)-5-[4-chloro-5-({5-[(3-fluorophenyl)ethynyl]-3-methylpyridin-2-yl}carbamoyl)-1H-pyrazol-1-yl]-N-ethylhexahydrocyclopenta[c]pyrrole-2(1H)-carboxamide] |
| 220 | CC(=O)N1CCC(CCn2ncc(Cl)c2C(=O)Nc2ncc(C#Cc3cccc(F)c3)cc2C)CC1 [Compound 133, 1-(2-(1-acetylpiperidin-4-yl)ethyl)-4-chloro-N-(5-((3-fluorophenyl)ethynyl)-3-methylpyridin-2-yl)-1H-pyrazole-5-carboxamide] |
| 220 | CC(C)(C)OC(=O)N1CCC(F)(Cn2ncc(Cl)c2C(=O)Nc2ncc(C#Cc3ccccc3)cc2F)CC1 [Compound 134, tert-butyl 4-((4-chloro-5-((3-fluoro-5-(phenylethynyl)pyridin-2-yl)carbamoyl)-1H-pyrazol-1-yl)methyl)-4-fluoropiperidine-1-carboxylate] |
| 220 | CC(=O)N1CC(Cn2ncc(Cl)c2C(=O)Nc2ncc(C#Cc3ccccc3)cc2C)C1 [Compound 135, 1-((1-acetylazetidin-3-yl)methyl)-4-chloro-N-(3-methyl-5-(phenylethynyl)pyridin-2-yl)-1H-pyrazole-5-carboxamide] |
| 220 | Cc1cc(C#Cc2ccccc2)cnc1NC(=O)c1c(Cl)cnn1C1CCN(C(=O)C(C)C)C1 (centres unmarked) [Compound 136, 4-chloro-1-(1-isobutyrylpyrrolidin-3-yl)-N-(3-methyl-5-(phenylethynyl)pyridin-2-yl)-1H-pyrazole-5-carboxamide] |
| 220 | CCC(=O)N1CC(n2ncc(Cl)c2C(=O)Nc2ncc(C#Cc3ccccc3)cc2C)C1 [Compound 137, 4-chloro-N-(3-methyl-5-(phenylethynyl)pyridin-2-yl)-1-(1-propionylazetidin-3-yl)-1H-pyrazole-5-carboxamide] |
| 220 | Cc1cc(C#Cc2ccc(F)cc2)cnc1NC(=O)c1c(Cl)cnn1C1CC2(C1)CN(C(=O)C1COCCO1)C2 (centres unmarked) [Compound 138, 1-(2-(1,4-dioxane-2-carbonyl)-2-azaspiro[3.3]heptan-6-yl)-4-chloro-N-(5-((4-fluorophenyl)ethynyl)-3-methylpyridin-2-yl)-1H-pyrazole-5-carboxamide] |
| 220 | O=C(Nc1ncc(C#Cc2cccs2)cc1F)c1c(Cl)cnn1C1CCN(C(=O)C2CC2)CC1 [Compound 139, 4-chloro-1-(1-(cyclopropanecarbonyl)piperidin-4-yl)-N-(3-fluoro-5-(thiophen-2-ylethynyl)pyridin-2-yl)-1H-pyrazole-5-carboxamide] |
| 230 | N#CC1(Cn2ncc(Cl)c2C(=O)Nc2ncc(C#Cc3ccccc3)cc2F)CC1 [Compound 141, 4-chloro-1-((1-cyanocyclopropyl)methyl)-N-(3-fluoro-5-(phenylethynyl)pyridin-2-yl)-1H-pyrazole-5-carboxamide] |
| 230 | CC(C)(C)OC(=O)N1CCC(Cn2ncc(Cl)c2C(=O)Nc2ncc(C#Cc3ccccc3)cc2F)CC1 [Compound 142, tert-butyl 4-((4-chloro-5-((3-fluoro-5-(phenylethynyl)pyridin-2-yl)carbamoyl)-1H-pyrazol-1-yl)methyl)piperidine-1-carboxylate] |
| 230 | Cc1cc(C#Cc2cccc(F)c2)cnc1NC(=O)c1c(Cl)cnn1C1CCN(C(=O)C2CC2)CC1 [Compound 143, 4-chloro-1-(1-(cyclopropanecarbonyl)piperidin-4-yl)-N-(5-((3-fluorophenyl)ethynyl)-3-methylpyridin-2-yl)-1H-pyrazole-5-carboxamide] |
| 230 | CC(C)C(=O)N1CCC(CCn2ncc(Cl)c2C(=O)Nc2ncc(C#Cc3ccccc3)cc2F)CC1 [Compound 144, 4-chloro-N-(3-fluoro-5-(phenylethynyl)pyridin-2-yl)-1-(2-(1-isobutyrylpiperidin-4-yl)ethyl)-1H-pyrazole-5-carboxamide] |
